In the assay the test system is TNF-α. Kind of assay: Serum TNF induced by LPS in the mouse after phospholipid pretreatment (L-929 cytotoxicity bioassay). The format is in vivo. Particulars: S. Thyphi LPS 5 µ i.p., blood 60' later; for TNF-α title treated: average ± SEM. How it is done: Utilized are: • 170 Charles River CD-1 albino male mice weighing about 25-30 g • 6 New Zealand male rabbits weighing about 2-2.5 kg.
The animals after 90' from the last phospholipidic treatment or with THIS (as indicated later-on), are treated by parenteral route with S. Thyphi or E. Coli (Sigma) lipopolysaccharide.
Particularly: • mouse: injection of 5 µg LPS i.p. (1st experiment) or 25 µg LPS i.v. (2nd experiment) the blood sample is taken after 60 min. • rabbit: injection of 1 µg LPS i.v.. The blood sample is taken after 90 minutes.
The following products are tested: • BC-PS (phosphatidylserine in the commercially available form consisting of a composition comprising: phosphatidylserine extracted from bovine brain as described in example 1) • PS (phosphatidylserine) • PC (phosphatidylcholine) • PG (phosphatidylglycerol) • DPS (lysophosphatidylserine) • PE (phosphatidylethanolamine) • […] (1-myristoyl-2-deoxi-3-glycerophospho-L-serine) The phospholipids purity and their composition are determined by thin layer bidimensional chromatography (Punzi, L. et al.: Phospholipids in inflammatory synovial effusions. Rheumatol. Int. 6, 7-11, 1986).
Phospholipids are then solubilized in 50 mM TRIS-HCl pH 7.8 and suitably sonicated.
The phospholipidic dispersion is then injected in animals under the following conditions: • mouse: BC-PS 15-30 mg/kg/die i.p. for 3 days or 30 mg/kg/die i.v. for 3 days DPS, PSS₄ 20 mg/kg/die i.p. for 3 days PS, PC, PG, PE 25 mg/kg/die i.p. for 3 days • rabbit: 30 mg/kg/die i.v. for 5 days.
LPS is then administered following the above mentioned conditions with successive blood sample for the seric TNF dosage.
The level of seric TNF was evaluated by biological dosage, using the fibroblasts line L-929 of murine sarcoma (American type culture collection). In fact TNF is cytotoxic against said line (Meager A. et al.: Assays for tumor necrosis factor and related cytokines. J. Immunol. Methods 116: 1-17, 1989).
Shortly, 5 x 10⁴ cells are cultured in 96 well plates with 0.1 ml RPMI 1640 medium containing 10 % (v/v) of bovine serum inactivated at 56 °C for 30'.
After 18 hours the medium is replaced with 0.1 ml of fresh medium, containing serial dilutions of serum samples to be tested in the presence of actinomycin D (2 µg/ml) and lithium chloride 20 mM in order to increase the method sensitivity, namely the TNF cytotoxicity (Beyaert R. et al.: Lithium chloride potentiates tumor necrosis factor-mediated cytotoxicity in vitro and in vivo. Proc. Natl. Acad. Sci. 86: 9494-9498, 1989).
An […] (4000 U/ml of TNF-α(Genzyme) is added to 3 wells in every plate and said wells are utilized as positive control in order to check the sensitivity level of the cellular line, namely to verify the specificity dosage.
As negative controls, wells containing untreated mice serum, are used.
After 18 hours the medium is sucked and replaced with 0.1 ml of a saline solution containing 30 mM of glucose and 0.45 mg/ml of MTT tetrazolium (3-[4,5-dimethylthiazol-2-yl]-2,5 diphenyl-tetrazolium bromide. Then, after 4 hours, 0.1 ml of an acid solution of isopropanol (0.08 N HCl in isopropanol) is added and the absorbance is read by using a plate spectrophotometer scanner provided with a filter specific for 570 nm absorbance.
TNF cytotoxicity is calculated, by applying the formula: [formula] TNF-α title in serum samples is expressed in unit/ml and corresponds to the inverse of the dilution bringing to 50 % of cellular survival (Meager A. et al.: Assays for tumor necrosis factor and related cytokines. J. Immunol. Methods 116: 1-17, 1989).
In order to validate the test an anti-TNF-α murine antibody (Genzyme) is used which, as foreseen (see the results) blocks completely the cytotoxicity of murine serum but not the one of rabbit serum.

The source of these data is patent EP0505817A1, “Use of phosphatidylserine and its derivatives for the manufacture of a medicament for the treatment of degenerative pathologies also associated with immune disfunctions” (FIDIA S.p.A., priority 1991, dated 1992).

For `CCCCCCCCCCCCCC(=O)OCCCOP(=O)(O)OC[C@H](N)C(=O)O` [PSS₄, 1-myristoyl-2-deoxi-3-glycerophospho-L-serine], the TNF-α title treated (dose 20 mg/kg i.p. for 3 days) is given as 50±16 (5) U/serum ml.

In the case of lysophosphatidylserine [DPS], where the note is “dose 20 mg/kg i.p. for 3 days”, the “Inhibition (%)” value is 80% and the TNF-α title treated is 45±11 (5) U/serum ml.

For “phosphatidylcholine [PC, reference compound]”, under “dose 25 mg/kg i.p. for 3 days”, the “Inhibition (%)” value turned out to be 16% and the TNF-α title treated was 176±53 (12) U/serum ml.

Take phosphatidylethanolamine [PE]: where the note is “dose 25 mg/kg i.p. for 3 days”, the “Inhibition (%)” value is 56% and the TNF-α title treated is listed as 137±46 (6) U/serum ml.

As to “phosphatidylglycerol [PG, reference compound]”, under “dose 25 mg/kg i.p. for 3 days”, the “Inhibition (%)” value was “inactive” and the TNF-α title treated is recorded as 238±37 (18) U/serum ml.

As to phosphatidylserine [PS], for the setting “dose 25 mg/kg i.p. for 3 days”, the “Inhibition (%)” value is recorded as 68% and the TNF-α title treated was 81±21 (9) U/serum ml.
